# Reference: PubChem BioAssay (NCI)
#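 Tested at 5 concentrations; 48 h exposure; 96-well plates; endpoints linearly interpolated, else capped at highest concentration. TGI: total growth inhibition.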
# How the values were obtained:
# Test in all cases: NCI tumour cell line growth inhibition, 48 h
# HCT-116 colon = system: HCT-116 colon
# HL-60(TB) leukemia = system: HL-60(TB) leukemia
# TK-10 renal = system: TK-10 renal
# EKVX NSCLC = system: EKVX NSCLC
# COLO 205 colon = system: COLO 205 colon
# M19-MEL melanoma = system: M19-MEL melanoma
# MALME-3M melanoma = system: MALME-3M melanoma
# DLD-1 colon = system: DLD-1 colon
# OVCAR-3 ovarian = system: OVCAR-3 ovarian
# SNB-78 CNS = system: SNB-78 CNS
# SK-MEL-5 melanoma = system: SK-MEL-5 melanoma
# SF-295 CNS = system: SF-295 CNS
# NCI-H23 lung = system: NCI-H23 lung
# MOLT-4 leukemia = system: MOLT-4 leukemia
# DMS 114 small cell lung = system: DMS 114 small cell lung
# SK-MEL-28 melanoma = system: SK-MEL-28 melanoma
# SNB-19 CNS = system: SNB-19 CNS
# OVCAR-5 ovarian = system: OVCAR-5 ovarian
# OVCAR-8 ovarian = system: OVCAR-8 ovarian
# SK-OV-3 ovarian = system: SK-OV-3 ovarian
# IGROV1 ovarian = system: IGROV1 ovarian
# RXF 393 renal = system: RXF 393 renal
# SF-539 CNS = system: SF-539 CNS
# CAKI-1 renal = system: CAKI-1 renal
# HCT-15 colon = system: HCT-15 colon
# HOP-18 NSCLC = system: HOP-18 NSCLC
# M14 melanoma = system: M14 melanoma
# UO-31 renal = system: UO-31 renal
# 786-0 renal = system: 786-0 renal
# HOP-62 NSCLC = system: HOP-62 NSCLC
# KM12 colon = system: KM12 colon
# SK-MEL-2 melanoma = system: SK-MEL-2 melanoma
# HT29 colon = system: HT29 colon
# K-562 leukemia = system: K-562 leukemia
# OVCAR-4 ovarian = system: OVCAR-4 ovarian
# HCC-2998 colon = system: HCC-2998 colon
# RPMI-8226 leukemia = system: RPMI-8226 leukemia
# XF 498 CNS = system: XF 498 CNS
# U251 CNS = system: U251 CNS
# DMS 273 small cell lung = system: DMS 273 small cell lung
# NCI-H226 lung = system: NCI-H226 lung
# LXFL 529 NSCLC = system: LXFL 529 NSCLC
# KM20L2 colon = system: KM20L2 colon
# LOX IMVI melanoma = system: LOX IMVI melanoma
# NCI-H522 lung = system: NCI-H522 lung
# NCI-H460 lung = system: NCI-H460 lung
# SR leukemia = system: SR leukemia
# SN12C renal = system: SN12C renal
# A498 renal = system: A498 renal
# HOP-92 NSCLC = system: HOP-92 NSCLC
# SNB-75 CNS = system: SNB-75 CNS
# ACHN renal = system: ACHN renal
# UACC-62 melanoma = system: UACC-62 melanoma
# SF-268 CNS = system: SF-268 CNS
# SW-620 colon = system: SW-620 colon
# A549 NSCLC = system: A549 NSCLC
# CCRF-CEM leukemia = system: CCRF-CEM leukemia
# UACC-257 melanoma = system: UACC-257 melanoma
smiles,measurement,setting,value
OC[C@@H]1CC#C/C=C\C#CC[C@@H]1CO,TGI,HCT-116 colon,> 100 µM
same,TGI,HL-60(TB) leukemia,> 100 µM
same,TGI,TK-10 renal,> 100 µM
same,TGI,EKVX NSCLC,> 100 µM
same,TGI,COLO 205 colon,> 100 µM
same,TGI,M19-MEL melanoma,> 100 µM
same,TGI,MALME-3M melanoma,> 100 µM
same,TGI,DLD-1 colon,> 100 µM
same,TGI,OVCAR-3 ovarian,> 100 µM
same,TGI,SNB-78 CNS,> 100 µM
same,TGI,SK-MEL-5 melanoma,> 100 µM
same,TGI,SF-295 CNS,> 100 µM
same,TGI,NCI-H23 lung,> 100 µM
same,TGI,MOLT-4 leukemia,> 100 µM
same,TGI,DMS 114 small cell lung,> 100 µM
same,TGI,SK-MEL-28 melanoma,> 100 µM
same,TGI,SNB-19 CNS,> 100 µM
same,TGI,OVCAR-5 ovarian,> 100 µM
same,TGI,OVCAR-8 ovarian,> 100 µM
same,TGI,SK-OV-3 ovarian,> 100 µM
same,TGI,IGROV1 ovarian,> 100 µM
same,TGI,RXF 393 renal,> 100 µM
same,TGI,SF-539 CNS,> 100 µM
same,TGI,CAKI-1 renal,> 100 µM
same,TGI,HCT-15 colon,> 100 µM
same,TGI,HOP-18 NSCLC,> 100 µM
same,TGI,M14 melanoma,> 100 µM
same,TGI,UO-31 renal,> 100 µM
same,TGI,786-0 renal,> 100 µM
same,TGI,HOP-62 NSCLC,> 100 µM
same,TGI,KM12 colon,> 100 µM
same,TGI,SK-MEL-2 melanoma,> 100 µM
same,TGI,HT29 colon,> 100 µM
same,TGI,K-562 leukemia,> 100 µM
same,TGI,OVCAR-4 ovarian,> 100 µM
same,TGI,HCC-2998 colon,> 100 µM
same,TGI,RPMI-8226 leukemia,> 100 µM
same,TGI,XF 498 CNS,6.99 µM
same,TGI,U251 CNS,> 100 µM
COc1ccc(C(=O)c2c(C(C(=O)c3ccc(OC)cc3)C(=O)c3ccc(OC)cc3)n(C(=O)c3ccc(OC)cc3)c3ccccc23)cc1,TGI,DMS 273 small cell lung,> 100 µM
same,TGI,NCI-H226 lung,> 100 µM
same,TGI,LXFL 529 NSCLC,> 100 µM
same,TGI,KM20L2 colon,> 100 µM
same,TGI,HCT-116 colon,> 100 µM
same,TGI,HL-60(TB) leukemia,> 100 µM
same,TGI,TK-10 renal,> 100 µM
same,TGI,EKVX NSCLC,> 100 µM
same,TGI,LOX IMVI melanoma,> 100 µM
same,TGI,NCI-H522 lung,> 100 µM
same,TGI,NCI-H460 lung,> 100 µM
same,TGI,COLO 205 colon,> 100 µM
same,TGI,SR leukemia,> 100 µM
same,TGI,SN12C renal,> 100 µM
same,TGI,M19-MEL melanoma,> 100 µM
same,TGI,A498 renal,> 100 µM
same,TGI,MALME-3M melanoma,> 100 µM
same,TGI,DLD-1 colon,> 100 µM
same,TGI,OVCAR-3 ovarian,> 100 µM
same,TGI,SNB-78 CNS,> 100 µM
same,TGI,HOP-92 NSCLC,> 100 µM
same,TGI,SNB-75 CNS,> 100 µM
same,TGI,SK-MEL-5 melanoma,> 100 µM
same,TGI,SF-295 CNS,> 100 µM
same,TGI,ACHN renal,> 100 µM
same,TGI,NCI-H23 lung,> 100 µM
same,TGI,MOLT-4 leukemia,> 100 µM
same,TGI,DMS 114 small cell lung,> 100 µM
same,TGI,SK-MEL-28 melanoma,> 100 µM
same,TGI,SNB-19 CNS,> 100 µM
same,TGI,OVCAR-5 ovarian,> 100 µM
same,TGI,UACC-62 melanoma,> 100 µM
same,TGI,OVCAR-8 ovarian,> 100 µM
same,TGI,SK-OV-3 ovarian,> 100 µM
same,TGI,IGROV1 ovarian,> 100 µM
same,TGI,SF-268 CNS,> 100 µM
same,TGI,RXF 393 renal,> 100 µM
same,TGI,SW-620 colon,> 100 µM
same,TGI,SF-539 CNS,> 100 µM
same,TGI,CAKI-1 renal,> 100 µM
same,TGI,HCT-15 colon,> 100 µM
same,TGI,M14 melanoma,> 100 µM
same,TGI,UO-31 renal,> 100 µM
same,TGI,786-0 renal,> 100 µM
same,TGI,A549 NSCLC,> 100 µM
same,TGI,HOP-62 NSCLC,> 100 µM
same,TGI,KM12 colon,> 100 µM
same,TGI,SK-MEL-2 melanoma,> 100 µM
same,TGI,HT29 colon,> 100 µM
same,TGI,K-562 leukemia,> 100 µM
same,TGI,OVCAR-4 ovarian,> 100 µM
same,TGI,HCC-2998 colon,> 100 µM
same,TGI,RPMI-8226 leukemia,> 100 µM
same,TGI,CCRF-CEM leukemia,> 100 µM
same,TGI,XF 498 CNS,> 100 µM
same,TGI,U251 CNS,> 100 µM
O=C1N[C@H](Cc2cnc[nH]2)C(=O)N2CCC[C@@H]12,TGI,DMS 273 small cell lung,> 100 µM
same,TGI,LXFL 529 NSCLC,> 100 µM
same,TGI,KM20L2 colon,> 100 µM
same,TGI,HL-60(TB) leukemia,> 100 µM
same,TGI,TK-10 renal,> 100 µM
same,TGI,EKVX NSCLC,> 100 µM
same,TGI,LOX IMVI melanoma,> 100 µM
same,TGI,NCI-H522 lung,> 100 µM
same,TGI,NCI-H460 lung,> 100 µM
same,TGI,COLO 205 colon,> 100 µM
same,TGI,SN12C renal,> 100 µM
same,TGI,M19-MEL melanoma,> 100 µM
same,TGI,MALME-3M melanoma,> 100 µM
same,TGI,DLD-1 colon,> 100 µM
same,TGI,OVCAR-3 ovarian,> 100 µM
same,TGI,SNB-78 CNS,> 100 µM
same,TGI,HOP-92 NSCLC,> 100 µM
same,TGI,SNB-75 CNS,> 100 µM
same,TGI,SK-MEL-5 melanoma,> 100 µM
same,TGI,SF-295 CNS,> 100 µM
same,TGI,ACHN renal,> 100 µM
same,TGI,NCI-H23 lung,> 100 µM
same,TGI,MOLT-4 leukemia,> 100 µM
same,TGI,DMS 114 small cell lung,> 100 µM
same,TGI,SK-MEL-28 melanoma,> 100 µM
same,TGI,SNB-19 CNS,> 100 µM
same,TGI,OVCAR-5 ovarian,> 100 µM
same,TGI,UACC-62 melanoma,> 100 µM
same,TGI,OVCAR-8 ovarian,> 100 µM
same,TGI,SK-OV-3 ovarian,> 100 µM
same,TGI,IGROV1 ovarian,> 100 µM
same,TGI,SF-268 CNS,> 100 µM
same,TGI,RXF 393 renal,> 100 µM
same,TGI,SW-620 colon,> 100 µM
same,TGI,CAKI-1 renal,> 100 µM
same,TGI,HCT-15 colon,> 100 µM
same,TGI,M14 melanoma,> 100 µM
same,TGI,UO-31 renal,> 100 µM
same,TGI,786-0 renal,> 100 µM
same,TGI,A549 NSCLC,> 100 µM
same,TGI,HOP-62 NSCLC,> 100 µM
same,TGI,KM12 colon,> 100 µM
same,TGI,SK-MEL-2 melanoma,> 100 µM
same,TGI,K-562 leukemia,> 100 µM
same,TGI,OVCAR-4 ovarian,> 100 µM
same,TGI,HCC-2998 colon,> 100 µM
same,TGI,RPMI-8226 leukemia,> 100 µM
same,TGI,CCRF-CEM leukemia,> 100 µM
same,TGI,XF 498 CNS,> 100 µM
same,TGI,UACC-257 melanoma,> 100 µM
